Results taken from patent US12560591B2, “Methods of treatment with CD8 T cell-mediated immune therapy” (Providence Health & Services—Oregon, priority 2019, dated 2026).

System: CT26 tumors
Test: CT26 tumor model: ALK5 inhibitor with chemoradiation (RT+5FU), tumor growth and survival
Format: in vivo, mouse
Conditions: CT26 tumor-bearing mice, LY added to RT+5FU, FIG. 1B
Procedure: FIGS. 1A-1D are a series of panels showing that the TGFβR1 antagonist LY2157299 enhances chemo-radiation efficacy dependent on CD8α^+ cells in CT26 tumors. FIG. 1A is a treatment schema in the CT26 tumor model. Six to eight week old BALB/c mice were implanted subcutaneously in the left flank with 2×10^5 CT26 tumor cells. Seven days following implant, animals were randomized based on tumor size, and vehicle control or LY2157299 compound were administered by oral gavage twice daily every 12 hours at 150 mg/kg for 7 consecutive days. At day 14, some mice received five consecutive radiation treatments of 5 Gy targeted to tumor tissue along with 25 mg/kg injections of 5-fluorouracil (5FU) chemotherapy administered intraperitoneally on days 14, 16, and 18. LY treatment groups resumed BID oral dosing from days 21-27. Mean tumor growth (i) and survival (ii) were assessed three times per week up to 100 days or death (FIG. 1B). […] Arrows identify pSMAD2^+CD8^+ cells in vehicle mice. […] NS=not significant, *=p<0.05, **=p<0.01, ***=p<0.001.
FIGS. 6A-6D are a series of panels showing generation of tumor-specific immune memory following tumor eradication with TGFβ inhibition with chemoradiation. […] The number of mice cured over the total number of mice in each group is indicated in the top right corner. One representative experiment is shown reflective of two independent experiments. Mice who eradicated their tumors were rechallenged with CT26 and 4T1 tumors. CT26 tumor cells were rechallenged on the opposite flank as from the original cured tumor. In FIG. 6D, 4T1 and CT26 tumor establishment and growth was followed for up to 60 days post re-challenge. The number of tumors rejected per total mice rechallenged in each tumor type is indicated in the top right portion of the graph. ***=p<0.001
Animal studies and cell culture: C57BL/6, BALB/c, CD8Cre, Lyz2Cre, and Foxp3-eGFP-CreERT2 mice were purchased from the Jackson Laboratories (Bar Harbor, Maine). ALK5flox/flox mice were a generous gift from Andrew Weinberg (Providence Cancer Center). All transgenic mice were on C57BL/6 background. CT26, MC38, 4T1 and MCA205-OVA tumor cells were grown in DMEM medium supplemented with 10% heat-inactivated fetal bovine serum and 1% penicillin-streptomycin to 60-90% confluence prior to tumor implantation. All cells were washed 2× with 1×PBS and implanted subcutaneously in a 100 μl volume of 1×PBS in the lower flanks. 1×10^5 MC38 cells, 2×10^5 CT26 cells, 5×10^4 4 T1 cells, and 5×10^6 MCA205-OVA cells were used for tumor induction. Tumors were measured 3×/week until they reached the survival end-point of 144 mm^2. […] Following single cell preparation, cells were washed and resuspended in FACS buffer (1×PBS, 1% BSA, 2 mM EDTA) and counted prior to FACS staining using a Guava EasyCyte cytometer (Millipore). […]

## Cc1cccc(-c2nn3c(c2-c2ccnc4ccc(C(N)=O)cc24)CCC3)n1 [LY2157299]
150 mg/kg BID oral, p<0.01
  median survival: 45 days
  tumor growth: significantly slowed tumor growth
